These results are taken from US20190038756A1, “COMPOSITIONS INCLUDING BENZENESULFONAMIDE-CONTAINING NON-STEROIDAL ANTI-INFLAMMATORY DRUGS, SILK FIBROIN, AND A GELLING AGENT AND USES THEREOF” (Cocoon Biotech Inc., priority 2016, published 2019).

Values after ≈ are worked out from the molar mass of the structure shown. Structures can show the parent of a compound that is named as a salt. Where two headings read alike, the source gives them in different places. A value given as a limit tells only on which side of the number the result lay.

For data set [1], the system named is TNF-α in human whole blood. Nature of the data set: Human whole blood activation: TNF-α by ELISA after 24 hours at 37° C., with or without LPS. The format is cell-based. The source says: Acute inflammatory responses are initiated via activation of a mammal's innate immune system. Human whole blood contains the principle repertoire of immune cells responsible for initiating an innate driven inflammatory response. Activation of inflammation in human whole blood is a useful in vitro assay for assessing the inflammatory potential of silk-fibroin hydrogel constituents. For this reason, whole human blood was exposed to silk fibroin solutions, three dimensional silk fibroin hydrogels, and a variety of different gelling agents for 24 hours at 37° C. and assessed for activation of inflammation.
Lipopolysaccharide (LPS) was used as a positive stimulator of the inflammatory marker TNF-α, in whole blood. Experiments to assess the inflammatory potential of formulation constituents were conducted both in the absence and the presence of lipopolysaccharide (LPS). The later condition to assess whether any formulation constituent had the activity of potentiating a known inflammatory signal. In each experiment, plasma was collected at the end of the incubation period and analyzed for TNF-α via enzyme-linked immunosorbent assay (ELISA).
A general note: An ELISA detects its analyte on a solid surface through an enzyme-linked reagent.

Data set [2] is described as follows: In vitro release study of NSAIDs from silk-PEG hydrogels (UV detection). The conditions noted are these: for time within which celecoxib was released / sustained release (e.g., greater than one week) using a silk-fibroin hydrogel delivery platform: silk-fibroin hydrogel; for time within which celecoxib was released: 6.5% (w/v) fibroin (FIG. 5); for release of free drug without encapsulation in silk-fibroin hydrogels: no hydrogel. The format is physicochemical. As to the method: Lyophilized silk was dissolved with ultrapure water to obtain concentrations of 1.3, 3.6, 7.0, 13.0, and 23.0% (w/v). Polyethylene glycol (PEG) with molecular weights of 300 and 400 Da (PEG300 and PEG400) was diluted with ultrapure water when necessary. Celecoxib (a benzenesulfonamide-containing NSAID) and other NSAIDs which are not benzenesulfonamide-containing NSAIDs (tenoxicam, meloxicam, and lomoxicam) were dissolved with 80% (v/v) PEG400 solution to obtain low concentration solutions (<40 mg/mL) or with 100% (v/v) PEG300 to obtain high concentration solutions (>100 mg/mL). Diclofenac sodium salt (another NSAID that is not a benzenesulfonamide-containing NSAID) was dissolved in the aqueous silk solution.
The PEG or PEG/drug solution was mixed with silk solution by pipetting up and down gently and aliquoted into a 2-mL Eppendorf tube. Each tube was left at 37° C. to gel overnight (Wang et al., Acta Biomater. 12:51-61, 2015).
To the 2-mL Eppendorf tube containing fibroin-drug hydrogel, 1.95 mL of release medium was added. The release medium contained 1× phosphate buffer, pH 7.4, 0.1% (v/v) Tween-80, and 0.02% (w/v) sodium azide. The samples were incubated at 37° C. with gentle shaking. The release medium was changed after 24 hours and then approximately once every 3 days. The release medium was subjected to UV detection using a UV transparent bottom plate (Corning) at the respective wavelengths listed in Table 8. Control release medium was measured under the same condition for background subtraction. A calibration curve was generated for each drug by dissolving a known amount of each drug in the release medium, and making dilutions with the release medium.

Data set [3] is described as follows: AUC at NOAEL oral dose from oral Celecoxib NDA package. As to conditions: in vivo, oral NOAEL dose 20 mg/kg, read-out: Extrapolated AUC for 25 days.
A short description of data set [4]: Solubility of celecoxib in release media. The conditions noted are these: release medium (phosphate buffered saline with Tween-80), aqueous with cosolvent or surfactant or cyclodextrin; 1× phosphate buffered saline, 2% (v/v) Tween-80, 0.05% sodium azide. It is filed as physicochemical.
For data set [5] the following is noted: oral NOAEL dose 20 mg/kg, cited from earlier work.
A short description of data set [6]: Gelation of silk fibroin hydrogels with varying gelling agents (25° C., 37° C., autoclave). The format is physicochemical.
The mark [7] stands for this setting: absence of celecoxib, RT curing.
The mark [8] stands for this setting: absence of celecoxib, autoclaving.

“silk fibroin: soluble silk fibroin samples isolated using several different degumming techniques”: the “Inflammatory signal (TNF-α) in human whole blood” value in data set [1] (absence of co-added LPS, 24 hours at 37° C.) is on record as “did not exhibit inflammatory signals beyond low baseline responses”. The “TNF-α response in human whole blood” value in data set [1] (presence of LPS, 24 hours at 37° C.) is given as “generally reduced compared to the response to LPS alone”.
Usually AUC stands for the area under the concentration-time curve, a measure of exposure. As a reminder, the solubility is the dissolved amount per volume that the medium holds. The low end stands for a poorly soluble substance, the high end for a readily soluble substance. As for `Cc1ccc(-c2cc(C(F)(F)F)nn2-c2ccc(S(N)(=O)=O)cc2)cc1` [Celecoxib, 4-[5-(4-methylphenyl)-3-(trifluoromethyl)pyrazol-1-yl]benzenesulfonamide], in data set [2] (all hydrogels of FIG. 7), the “extended time period of celecoxib release” value is on record as at most 56 days. In addition, in data set [2] (fibroin concentrations in the hydrogel […] (w/v) to 6.5% (w/v)), the “duration of sustained celecoxib release” value is listed as “sustained over two months”. Besides, the “period over which celecoxib release occurs” value in data set [2] (hydrogel fibroin concentration 0.65% (w/v) (FIG. 6)) stood at 15 days; in data set [2] (hydrogel fibroin concentration 1.3% (w/v) (FIG. 6)) it was 30 days; in data set [2] (hydrogel fibroin concentration 12.5% (w/v) (FIG. 6)) it was 41 days; in data set [2] (hydrogel fibroin concentration […] (w/v) (FIG. 6)), 41 days; in data set [2] (no fibroin/“free” celecoxib sample (0% silk-fibroin) (FIG. 6)), 6 days. In addition, the results for the “time within which celecoxib was released” value in data set [2] (celecoxib 0.09375% (w/v)), in data set [2] (celecoxib 0.1875% (w/v)) and in data set [2] (celecoxib 0.375% (w/v)) were at most 30 days, at most 30 days and at most 75 days, respectively. In data set [2] (silk-fibroin hydrogels), the “duration of slow release of celecoxib at ˜40 μg a day” value is given as “more than 75 days”. Also, in data set [2] (silk-fibroin hydrogels), the “slow release rate of celecoxib from silk-fibroin hydrogels” value is about 40 μg a day. The AUC was 978 µg·h/mL in data set [3] (Female (F)) and 468 µg·h/mL in data set [3] (Male (M)). Also, the solubility in data set [4] amounted to 850 µg/mL (≈ 2230 µM). For the same compound, the figures for the “AUC at Day 1” value in data set [5] (Female (F)) and in data set [5] (Male (M)) were 39.1 µg·h/mL and 18.7 µg·h/mL, respectively.
Consider `O=C(O)Cc1ccccc1Nc1c(Cl)cccc1Cl` [Diclofenac sodium salt], for which the “time within which drug was completely released” value in data set [2] (from all the tested silk-fibroin hydrogels (FIGS. 2-4), 37° C., phosphate buffer pH 7.4, 0.1% Tween-80) was at most 4 days. In data set [2], the “release of free drug without encapsulation in silk-fibroin hydrogels” value is on record as “released within one day” and the “sustained release (e.g., greater than one week) using a silk-fibroin hydrogel delivery platform” value was “could not be achieved”.
`OC[C@@H](O)[C@@H](O)[C@H](O)[C@@H](O)CO` [sorbitol]: the “Inflammatory potential (TNF-α) in human whole blood” value in data set [1] (+/−LPS, relevant concentrations) was “non-inflammatory”. The “Gelling agent concentration at which a hydrogel formed” value is given as 30 % (w/v) in data set [6] (absence of celecoxib, 37° C.) and 30 % (w/v) in data set [6] (absence of celecoxib, RT).
`OCC(O)CO` [glycerol]: the “Minimum gelling agent concentration eliciting gelation” value in data set [6] (87 mg/mL celecoxib, curing temperature 37° C.) is 40 % (v/v); in data set [6] (absence of celecoxib, 37° C.) it was 40 % (v/v); in data set [6] (setting [7]), 50 % (v/v); in data set [6] (setting [8]) it was 30 % (v/v).
Turning to Glycerol formal, the entries for the “Minimum gelling agent concentration eliciting gelation” value in data set [6] (setting [7]) and in data set [6] (setting [8]) were 40 % (v/v) and 20 % (v/v), respectively.
On to `CC(O)CO` (stereo not drawn) [Propylene glycol], for which the “Minimum gelling agent concentration eliciting gelation” value was 30 % (v/v) in data set [6] (87 mg/mL celecoxib, RT); 10 % (v/v) in data set [6] (87 mg/mL celecoxib, autoclave); 40 % (v/v) in data set [6] (setting [7]); 20 % (v/v) in data set [6] (setting [8]).
Take `CN1C(C(=O)Nc2ccccn2)=C(O)c2sc(Cl)cc2S1(=O)=O` [Lomoxicam, lomoxicam]: the “day at which cumulative release plateaued” value in data set [2] (drug with no fibroin (FIG. 1)) came to 2 days; in data set [2] (from silk-fibroin hydrogels, all tested formulations (FIG. 1), 37° C., phosphate buffer pH 7.4, 0.1% Tween-80), 6 days. The “release of free drug without encapsulation in silk-fibroin hydrogels” value in data set [2] is listed as “released within one day”. In addition, the “sustained release (e.g., greater than one week) using a silk-fibroin hydrogel delivery platform” value in data set [2] is “could not be achieved”.
